Assay results: patent US20080050387A1, “Non-Androgen Dependent Roles for Androgen Receptor and Non-Androgen Related Inhibitors of Androgen Receptor” (priority 2003, published 2008)

Tests used:
AR [1] = assay: Mammalian two-hybrid assay hRad9 / AR in PC-3 cells; assay type: cell-based, human; conditions: 10 nM DHT, positive control
Protocol: (§1) PC-3, CWR22R, and LNCaP cell lines were maintained in […] supplemented with 10% fetal calf serum (FCS). Transient transfection for luciferase assays was carried out in 24-well plates (5×10^4 cells per well) using SuperFect as described previously (Lin, H. K., et al., Embo J 21:4037-48 (2002)). DNA mixtures in transfection assay were indicated in each figure. The total amount of transfected DNA was kept constant (1 μg) by adding the corresponding amounts of empty expression plasmids. After transfection, cells were cultured in RPMI-1600 supplemented with 5% charcoal-stripped FCS in the presence or absence of 10 nM dihydrotestosterone (DHT) for 18 h. Luciferase assays were performed as previously described (Yang, L., et al., J Biol Chem 278:16820-7 (2003)). In Western blotting assays, CWR22R or LNCaP cells were transfected by electroporation using 5×10^6 cells/0.4 ml of RPMI medium containing 2% FCS plus 9 μg of the indicated plasmids. 1 μg of EGFP expression vector was used for transfection efficiency. Electroporation was performed at 250 V and 950 μF using Gene Pulser II (Bio-Rad)
Target sequence in this assay (P10275 with tags, fused parts or gaps DEL79-80/DUP473-473): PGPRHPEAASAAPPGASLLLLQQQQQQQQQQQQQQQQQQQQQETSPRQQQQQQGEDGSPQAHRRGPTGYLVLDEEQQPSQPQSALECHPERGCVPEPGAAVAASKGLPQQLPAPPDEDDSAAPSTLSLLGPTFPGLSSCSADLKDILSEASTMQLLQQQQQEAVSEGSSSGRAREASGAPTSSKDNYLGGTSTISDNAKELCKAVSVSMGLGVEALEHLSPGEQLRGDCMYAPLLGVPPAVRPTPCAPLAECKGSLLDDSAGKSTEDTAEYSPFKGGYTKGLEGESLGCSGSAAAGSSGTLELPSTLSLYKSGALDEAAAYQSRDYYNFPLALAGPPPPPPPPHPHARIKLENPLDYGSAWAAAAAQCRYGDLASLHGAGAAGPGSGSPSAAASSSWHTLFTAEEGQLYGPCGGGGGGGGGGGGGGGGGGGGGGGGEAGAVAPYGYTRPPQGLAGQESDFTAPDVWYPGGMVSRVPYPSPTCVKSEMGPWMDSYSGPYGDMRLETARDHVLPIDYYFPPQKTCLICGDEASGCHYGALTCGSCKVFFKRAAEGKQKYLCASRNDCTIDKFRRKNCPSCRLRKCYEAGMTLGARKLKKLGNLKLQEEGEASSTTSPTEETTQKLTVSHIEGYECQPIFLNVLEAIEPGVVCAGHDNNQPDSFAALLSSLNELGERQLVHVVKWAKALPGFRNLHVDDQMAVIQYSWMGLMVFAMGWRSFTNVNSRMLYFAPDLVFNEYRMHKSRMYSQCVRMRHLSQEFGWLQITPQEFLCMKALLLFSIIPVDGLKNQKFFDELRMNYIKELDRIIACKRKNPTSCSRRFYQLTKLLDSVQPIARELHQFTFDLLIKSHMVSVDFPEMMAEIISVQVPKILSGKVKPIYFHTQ

AR N/C interaction = assay: Reconstituted AR transcription assay (AR N/C interaction) in PC-3 cells; assay type: cell-based, human; conditions: 10 nM DHT, MMTV-LUC
AR N/C interaction, sequence (P10275 557-920): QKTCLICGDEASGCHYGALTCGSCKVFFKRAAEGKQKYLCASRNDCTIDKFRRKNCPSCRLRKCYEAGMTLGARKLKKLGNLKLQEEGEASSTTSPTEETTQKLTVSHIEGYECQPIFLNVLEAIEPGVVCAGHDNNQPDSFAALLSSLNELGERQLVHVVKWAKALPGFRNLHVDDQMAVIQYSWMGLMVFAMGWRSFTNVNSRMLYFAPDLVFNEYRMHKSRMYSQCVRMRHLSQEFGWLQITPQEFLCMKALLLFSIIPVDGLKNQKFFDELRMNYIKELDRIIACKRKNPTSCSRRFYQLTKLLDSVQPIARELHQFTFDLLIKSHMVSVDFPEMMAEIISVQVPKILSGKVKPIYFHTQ
Protocol: as §1

AR (DBD-LBD, LBD, DBD) = assay: Yeast two-hybrid / liquid β-gal assay hRad9 fragment / AR domains; assay type: cell-based, human; conditions: AH109 yeast cells
AR (DBD-LBD, LBD, DBD), sequence (P10275 558-624): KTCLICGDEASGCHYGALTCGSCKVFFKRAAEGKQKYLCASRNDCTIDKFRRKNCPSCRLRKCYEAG
From the text: The DBD and LBD of AR cDNA was amplified and was cloned into the NdeI and BamHI site of pGBKT7 (Clontech). Yeast strain AH109 was transformed with the vector encoding GAL4 DBD-AR-DBD-LBD fusion and was mated with yeast strain Y187 pretransformed with the human ovary […] cDNA library (Clontech). The yeast clones were selected following the manufacturer's instruction. The positive clones were confirmed by clone lift assay and purified plasmids were retransformed into yeast strain AH109 with bait plasmids. The interaction specificity was further confirmed by liquid […] assay.

AR [2] = assay: In vitro GST pull-down assay GST-hRad9 / AR domains; assay type: binding, human
Protocol: The N-terminus (N), DBD, LBD, and DBD-LBD of AR were in vitro translated in the presence of [^35S] methionine using T7 polymerase and the coupled transcription/translation kit (Promega). pGEX-KG-hRad9 plasmids expressing GST-hRad9 fusion protein were transformed into BL21 (DE3) bacteria strain. 0.4 mM isopropyl-o-D-thiogalactopyranoside was added into LB medium containing transformed bacteria when the OD600 reached 0.5. Bacteria were further cultured in 30° C. for 3 h and lysed by 4 cycles of freezing-thawing in NETN buffer (20 mM Tris/pH 8.0, 0.5% NP-40, 100 mM NaCl, 6 mM MgCl2, 1 mM EDTA, 1 mM DTT, 8% glycerol, and 1 mM PMSF). The GST-hRad9 fusion proteins were purified with glutathione-beads in 4° C. Labeled proteins of AR mutants were incubated with equal amounts of GST-hRad9 in binding buffer (50 mM Hepes, 100 mM NaCl, 20 mM Tris-Cl/pH 8.0, 0.1% Tween 20, 10% glycerol, 1 mM dithiothreitol, 0.5 mM phenylmethysulfonyl fluoride, 1 mM NaF, and 0.4 mM sodium vanadate) with or without 10 nM DHT at 4° C. for 2 h. The beads were then washed with NETN buffer 4 times, resuspended in SDS-polyacrylamide loading buffer, and resolved on 10% SDS-polyacrylamide gel electrophoresis followed by autoradiograhy.

AR [3] = assay: AR transactivation MMTV-LUC assay in PC-3 cells with hRad9; assay type: cell-based, human; conditions: MMTV-LUC, 10 nM DHT
Protocol: as §1
Target sequence in this assay (P10275 with tags, fused parts or gaps DEL79-80/DUP473-473): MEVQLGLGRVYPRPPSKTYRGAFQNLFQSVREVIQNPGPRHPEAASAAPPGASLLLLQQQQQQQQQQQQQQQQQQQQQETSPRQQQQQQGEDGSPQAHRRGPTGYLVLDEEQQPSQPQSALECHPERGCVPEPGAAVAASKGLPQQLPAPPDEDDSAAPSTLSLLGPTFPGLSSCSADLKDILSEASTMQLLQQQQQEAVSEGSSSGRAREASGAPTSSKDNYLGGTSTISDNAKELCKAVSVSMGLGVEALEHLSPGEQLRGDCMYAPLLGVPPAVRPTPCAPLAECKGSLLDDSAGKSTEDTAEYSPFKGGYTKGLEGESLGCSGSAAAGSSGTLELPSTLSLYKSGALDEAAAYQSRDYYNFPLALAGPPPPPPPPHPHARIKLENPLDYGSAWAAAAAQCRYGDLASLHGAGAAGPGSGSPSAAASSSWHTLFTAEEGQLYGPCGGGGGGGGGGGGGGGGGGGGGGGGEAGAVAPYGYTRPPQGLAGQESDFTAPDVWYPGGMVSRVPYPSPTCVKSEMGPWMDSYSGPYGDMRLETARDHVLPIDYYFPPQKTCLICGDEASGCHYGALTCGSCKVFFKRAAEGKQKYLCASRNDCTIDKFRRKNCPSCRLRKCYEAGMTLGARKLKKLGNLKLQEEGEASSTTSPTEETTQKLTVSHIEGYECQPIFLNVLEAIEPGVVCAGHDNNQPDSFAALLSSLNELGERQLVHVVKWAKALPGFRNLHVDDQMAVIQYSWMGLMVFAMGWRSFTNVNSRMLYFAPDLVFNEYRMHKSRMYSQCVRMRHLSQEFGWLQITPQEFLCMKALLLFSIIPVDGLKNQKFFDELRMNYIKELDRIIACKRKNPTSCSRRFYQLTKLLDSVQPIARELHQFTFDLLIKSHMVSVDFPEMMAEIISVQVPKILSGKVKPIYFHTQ

[4] = tested on: PSA expression in LNCaP cells; assay: DHT-mediated induction of PSA protein in LNCaP cells with hRad9; assay type: cell-based, human; conditions: 10 nM DHT
Protocol: as §1

[5] = tested on: estrogen receptor α (ERα); assay: ERα transcriptional activity ERE-LUC in PC-3 cells with hRad9; assay type: cell-based; conditions: cognate ligand
estrogen receptor α (ERα), sequence (P03372 whole entry, species assumed): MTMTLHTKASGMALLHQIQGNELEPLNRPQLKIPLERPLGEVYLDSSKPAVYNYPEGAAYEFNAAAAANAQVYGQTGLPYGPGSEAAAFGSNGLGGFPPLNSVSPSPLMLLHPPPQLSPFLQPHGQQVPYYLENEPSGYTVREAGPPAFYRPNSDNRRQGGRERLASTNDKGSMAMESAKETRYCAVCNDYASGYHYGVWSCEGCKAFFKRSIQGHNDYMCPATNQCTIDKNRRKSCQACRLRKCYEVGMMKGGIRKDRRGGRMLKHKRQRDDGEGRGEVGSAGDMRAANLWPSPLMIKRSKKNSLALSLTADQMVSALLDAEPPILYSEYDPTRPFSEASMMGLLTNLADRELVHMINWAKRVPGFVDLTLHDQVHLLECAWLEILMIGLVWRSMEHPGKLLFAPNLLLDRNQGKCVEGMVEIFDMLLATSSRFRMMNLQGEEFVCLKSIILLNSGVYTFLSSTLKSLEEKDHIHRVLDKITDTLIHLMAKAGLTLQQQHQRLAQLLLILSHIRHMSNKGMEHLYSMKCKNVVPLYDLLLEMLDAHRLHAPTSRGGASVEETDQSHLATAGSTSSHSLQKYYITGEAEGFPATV
Protocol: as §1

vitamin D receptor (VDR) [6] = assay: VDR transcriptional activity rCyp24-LUC in PC-3 cells with hRad9; assay type: cell-based; conditions: cognate ligand
vitamin D receptor (VDR), sequence (P11473 whole entry, species assumed, the tested form may be a part): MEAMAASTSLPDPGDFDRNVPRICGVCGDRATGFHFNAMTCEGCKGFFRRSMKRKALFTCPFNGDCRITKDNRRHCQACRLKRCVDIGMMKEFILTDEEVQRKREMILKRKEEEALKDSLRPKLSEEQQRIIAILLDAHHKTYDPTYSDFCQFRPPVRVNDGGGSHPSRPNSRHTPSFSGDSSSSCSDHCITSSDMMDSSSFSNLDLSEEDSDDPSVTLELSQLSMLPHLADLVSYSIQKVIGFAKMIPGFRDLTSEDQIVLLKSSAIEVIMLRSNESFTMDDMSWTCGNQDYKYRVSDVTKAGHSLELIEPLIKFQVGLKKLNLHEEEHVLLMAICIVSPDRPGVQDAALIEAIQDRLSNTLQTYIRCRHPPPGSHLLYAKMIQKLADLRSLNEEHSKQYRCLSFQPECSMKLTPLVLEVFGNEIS
Protocol: as §1

[7] = tested on: estrogen receptor α (ERα); assay: Mammalian two-hybrid assay hRad9 / ERα; assay type: cell-based; conditions: PC-3 cells, presence of estrogen
Protocol: as §1, with “After transfection, cells were cultured in RPMI-1600 supplemented with 5% charcoal-stripped FCS in the presence or absence of 10 nM dihydrotestosterone (DHT) for 18 h.” left out

vitamin D receptor (VDR) [8] = assay: Mammalian two-hybrid assay hRad9 / VDR; assay type: cell-based; conditions: PC-3 cells
Protocol: as §1

interaction with ERα [7] | interaction with VDR (vitamin D receptor (VDR) [8]) | Substance | DHT-dependent interaction with VP16-AR (AR [1]) | interaction between AR N- and C-terminus (AR N/C interaction) | interaction with GAL4-AR-DBD (AR (DBD-LBD, LBD, DBD)) | interaction with AR LBD and AR-DBD-LBD (AR [2]) | interaction with N-terminus of AR (aa. 1-556) and DBD alone (AR [2]) | transcriptional activity of AR (AR [3]) | DHT-mediated induction of PSA [4] | ER transcriptional activity [5] | VDR transcriptional activity (vitamin D receptor (VDR) [6])
 |  | HPTHSSRLWELLMEATPTM [GAL4-D30 peptide, reference compound] | 350 fold | blockage |  |  |  |  |  |  | 
no interaction | no interaction | hRad9: human checkpoint protein of the Rad family (SEQ ID NO:7), corepressor of AR |  |  | did not interact | interacted specifically | Neither the N-terminus of AR (aa. 1-556) nor the DBD alone adhered | decreased | potently inhibited | little inhibitory effect | little inhibitory effect
